Assay results: US12428406B2 (PMV Pharmaceuticals, Inc., priority 2019, dated 2025)

Target: T1, p53 Y220C (Homo sapiens, UniProt P04637, Y220C)
T1 construct: The recombinant protein was a truncation mutant containing only amino acids 94-312 of p53; made in house; host or cells: E. coli
Test: In vitro DNA binding activity assay (HTRF / TR-FRET): stabilization of p53 Y220C and increase of its DNA binding activity
Assay type: biochemical
Settings: recombinant His-tagged p53 Y220C DNA binding domain (aa 94-312), biotin-labeled consensus DNA, incubated at 27° C. or 29° C. for 60 min
Procedure, shortened: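 Homogeneous time-resolved fluorescence with E. coli-derived p53 Y220C and biotinylated consensus DNA. Room-temperature incubations of 15 and 20 min precede reading. SC150 denotes the compound concentration required for 50% increased DNA binding.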

T1 sequence (P04637 94-312, change not shown): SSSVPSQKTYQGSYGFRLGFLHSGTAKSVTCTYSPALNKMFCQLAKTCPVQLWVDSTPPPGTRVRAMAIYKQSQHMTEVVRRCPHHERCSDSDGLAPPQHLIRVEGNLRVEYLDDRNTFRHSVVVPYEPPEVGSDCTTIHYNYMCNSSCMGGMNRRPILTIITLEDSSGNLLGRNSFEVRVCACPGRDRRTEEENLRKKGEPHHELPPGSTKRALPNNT

SC150 (concentration of the compound required to increase the DNA binding activity by 50%), + (+ = 0 μM ≤ SC150 < 0.05 μM):
COc1cc(S(C)(=O)=O)ccc1NCC#Cc1cc2c(N[C@H]3CC[C@H](N4CCC5(CCOC5)CC4)CC3)cccc2n1CC(F)(F)F [Compound 410A, 2-{3-[(4-methane-sulfonyl-2-methoxy-phenyl)amino]prop-1-yn-1-yl}-N-[(1R,4R)-4-{2-oxa-8-azaspiro[4.5]decan-8-yl}cyclohexyl]-1-(2,2,2-trifluoroethyl)-1H-indol-4-amine]
COc1cc(S(N)(=O)=O)ccc1NCC#Cc1cc2c(N[C@H]3CC[C@H](N4CCC5(CCOC5)CC4)CC3)cccc2n1CC(F)(F)F [Compound 411A, 3-methoxy-4-{[3-(4-{[(1R,4R)-4-{2-oxa-8-azaspiro[4.5]decan-8-yl}cyclohexyl]amino}-1-(2,2,2-trifluoroethyl)-1H-indol-2-yl)prop-2-yn-1-yl]amino}benzene-1-sulfonamide]
COc1cc(S(C)(=O)=O)ccc1NCC#Cc1cc2c(N[C@H]3CC[C@H](N4CCC5(CCOCC5)CC4)CC3)cccc2n1CC(F)(F)F [Compound 414A, 2-{3-[(4-methane-sulfonyl-2-methoxy-phenyl)amino]prop-1-yn-1-yl}-N-[(1R,4R)-4-{3-oxa-9-azaspiro[5.5]undecan-9-yl}cyclohexyl]-1-(2,2,2-trifluoroethyl)-1H-indol-4-amine]
CNC(=O)c1ccc(NCC#Cc2cc3c(N[C@H]4CC[C@H](N5CCC6(CCOCC6)CC5)CC4)cccc3n2CC(F)(F)F)c(OC)c1 [Compound 416A, 3-methoxy-N-methyl-4-{[3-(4-{[(1R,4R)-4-{3-oxa-9-azaspiro[5.5]undecan-9-yl}cyclohexyl]amino}-1-(2,2,2-trifluoroethyl)-1H-indol-2-yl)prop-2-yn-1-yl]amino}benzamide]
COc1cc(S(N)(=O)=O)ccc1NCC#Cc1cc2c(N[C@H]3CC[C@H](N4CCC5(CCOCC5)CC4)CC3)cccc2n1CC(F)(F)F [Compound 418A, 3-methoxy-4-{[3-(4-{[(1R,4R)-4-{3-oxa-9-azaspiro[5.5]undecan-9-yl}cyclohexyl]amino}-1-(2,2,2-trifluoroethyl)-1H-indol-2-yl)prop-2-yn-1-yl]amino}benzene-1-sulfonamide]
CNC(=O)c1ccc(NCC#Cc2cc3c(N[C@H]4CC[C@H](N5CCCC5)CC4)cccc3n2CC(F)(F)F)c(OC)c1 [Compound 420A, 3-methoxy-N-methyl-4-{[3-(4-{[(1R,4R)-4-(pyrrolidin-1-yl)cyclohexyl]amino}-1-(2,2,2-trifluoroethyl)-1H-indol-2-yl)prop-2-yn-1-yl]amino}benzamide]
COc1cc(S(N)(=O)=O)ccc1NCC#Cc1cc2c(N[C@H]3CC[C@H](N4CCCC4)CC3)cccc2n1CC(F)(F)F [Compound 422A, 3-methoxy-4-{[3-(4-{[(1R,4R)-4-(pyrrolidin-1-yl)cyclohexyl]amino}-1-(2,2,2-trifluoroethyl)-1H-indol-2-yl)prop-2-yn-1-yl]amino}benzene-1-sulfonamide]
COc1cc(S(C)(=O)=O)ccc1NCC#Cc1cc2c(N[C@H]3CC[C@H](N4CCCC4)CC3)cccc2n1CC(F)(F)F [Compound 424A, 2-{3-[(4-methane-sulfonyl-2-methoxy-phenyl)amino]prop-1-yn-1-yl}-N-[(1R,4R)-4-(pyrrolidin-1-yl)cyclohexyl]-1-(2,2,2-trifluoroethyl)-1H-indol-4-amine]
COc1cc(S(C)(=O)=O)ccc1NCC#Cc1cc2c(N[C@H]3CC[C@H](N4CCC(OC)C4)CC3)cccc2n1CC(F)(F)F (stereo partly drawn) [Compound 426A, 2-{3-[(4-methane-sulfonyl-2-methoxy-phenyl)amino]prop-1-yn-1-yl}-N-[(1R,4R)-4-(3-methoxypyrrolidin-1-yl)cyclohexyl]-1-(2,2,2-trifluoroethyl)-1H-indol-4-amine]
COc1cc(S(N)(=O)=O)ccc1NCC#Cc1cc2c(N[C@H]3CC[C@H](N4CCC(OC)C4)CC3)cccc2n1CC(F)(F)F (stereo partly drawn) [Compound 427A, 3-methoxy-4-{[3-(4-{[(1R,4R)-4-(3-methoxypyrrolidin-1-yl)cyclohexyl]amino}-1-(2,2,2-trifluoroethyl)-1H-indol-2-yl)prop-2-yn-1-yl]amino}benzene-1-sulfonamide]
CNC(=O)c1ccc(NCC#Cc2cc3c(N[C@H]4CC[C@H](N5CCC(OC)C5)CC4)cccc3n2CC(F)(F)F)c(OC)c1 (stereo partly drawn) [Compound 428A, 3-methoxy-N-methyl-4-{[3-(4-{[(1R,4R)-4-(3-methoxypyrrolidin-1-yl)cyclohexyl]amino}-1-(2,2,2-trifluoroethyl)-1H-indol-2-yl)prop-2-yn-1-yl]amino}benzamide]
COc1cc(S(N)(=O)=O)ccc1NCC#Cc1cc2c(N[C@H]3CC[C@H](N4CC5COCC5C4)CC3)cccc2n1CC(F)(F)F (stereo partly drawn) [Compound 430A, 3-methoxy-4-{[3-(4-{[(1R,4R)-4-{hexahydro-1H-furo[3,4-c]pyrrol-5-yl}cyclohexyl]amino}-1-(2,2,2-trifluoroethyl)-1H-indol-2-yl)prop-2-yn-1-yl]amino}benzene-1-sulfonamide]
COc1cc(S(C)(=O)=O)ccc1NCC#Cc1cc2c(N[C@H]3CC[C@H](N4CC5COCC5C4)CC3)cccc2n1CC(F)(F)F (stereo partly drawn) [Compound 432A, 2-{3-[(4-methane-sulfonyl-2-methoxy-phenyl)amino]prop-1-yn-1-yl}-N-[(1R,4R)-4-{hexahydro-1H-furo[3,4-c]pyrrol-5-yl}cyclohexyl]-1-(2,2,2-trifluoroethyl)-1H-indol-4-amine]
CNC(=O)c1ccc(NCC#Cc2cc3c(N[C@H]4CC[C@H](N5CC6COCC6C5)CC4)cccc3n2CC(F)(F)F)c(OC)c1 (stereo partly drawn) [Compound 434A, 3-methoxy-N-methyl-4-{[3-(4-{[(1R,4R)-4-{hexahydro-1H-furo[3,4-c]pyrrol-5-yl}cyclohexyl]amino}-1-(2,2,2-trifluoroethyl)-1H-indol-2-yl)prop-2-yn-1-yl]amino}benzamide]
COc1cc(S(C)(=O)=O)ccc1NCC#Cc1cc2c(N[C@H]3CC[C@H](N4CCC(C(F)(F)F)CC4)CC3)cccc2n1CC(F)(F)F [Compound 436A, 2-{3-[(4-methane-sulfonyl-2-methoxy-phenyl)amino]prop-1-yn-1-yl}-N-[(1R,4R)-4-[4-(trifluoromethyl)piperidin-1-yl]cyclohexyl]-1-(2,2,2-trifluoroethyl)-1H-indol-4-amine]
CNC(=O)c1ccc(NCC#Cc2cc3c(N[C@H]4CC[C@H](N5CCC(C(F)(F)F)CC5)CC4)cccc3n2CC(F)(F)F)c(OC)c1 [Compound 438A, 3-methoxy-N-methyl-4-{[3-(4-{[(1R,4R)-4-[4-(trifluoro-methyl)piperidin-1-yl]cyclohexyl]amino}-1-(2,2,2-trifluoroethyl)-1H-indol-2-yl)prop-2-yn-1-yl]amino}benzamide]
COc1cc(S(N)(=O)=O)ccc1NCC#Cc1cc2c(N[C@H]3CC[C@H](N4CCC(C(F)(F)F)CC4)CC3)cccc2n1CC(F)(F)F [Compound 440A, 3-methoxy-4-{[3-(4-{[(1R,4R)-4-[4-(trifluoromethyl)piperidin-1-yl]cyclohexyl]amino}-1-(2,2,2-trifluoroethyl)-1H-indol-2-yl)prop-2-yn-1-yl]amino}benzene-1-sulfonamide]
COc1cc(S(C)(=O)=O)ccc1NCC#Cc1cc2c(N[C@H]3CC[C@H](N4CCC(S(C)(=O)=O)CC4)CC3)cccc2n1CC(F)(F)F [Compound 442A, 2-{3-[(4-methane-sulfonyl-2-methoxy-phenyl)amino]prop-1-yn-1-yl}-N-[(1R,4R)-4-(4-methanesulfonylpiperidin-1-yl)cyclohexyl]-1-(2,2,2-trifluoroethyl)-1H-indol-4-amine]
CNC(=O)c1ccc(NCC#Cc2cc3c(N[C@H]4CC[C@H](N5CCC(S(C)(=O)=O)CC5)CC4)cccc3n2CC(F)(F)F)c(OC)c1 [Compound 444A, 3-methoxy-N-methyl-4-{[3-(4-{[(1R,4R)-4-(4-methane-sulfonylpiperidin-1-yl)cyclohexyl]amino}-1-(2,2,2-trifluoroethyl)-1H-indol-2-yl)prop-2-yn-1-yl]amino}benzamide]
COc1cc(S(N)(=O)=O)ccc1NCC#Cc1cc2c(N[C@H]3CC[C@H](N4CCC(S(C)(=O)=O)CC4)CC3)cccc2n1CC(F)(F)F [Compound 446A, 3-methoxy-4-{[3-(4-{[(1R,4R)-4-(4-methanesulfonyl-piperidin-1-yl)cyclo-hexyl]amino}-1-(2,2,2-trifluoroethyl)-1H-indol-2-yl)prop-2-yn-1-yl]amino}benzene-1-sulfonamide]
